Reference: PubChem BioAssay AID248 (DTP/NCI, 2004)
Where “and” joins values, the source holds several entries; their conditions need not be identical. Identical values can stand only once. Inconclusive results and toxic doses are left out. Cut-off read from the data, not from the text of the source: active = T/C of 150% or more; inactive = T/C below 125%.

Tested on: L1210 leukemia ip in BDF1 mice, survival T/C
Assay: NCI In Vivo Anticancer Drug Screen. Data for tumor model L1210 Leukemia (intraperitoneal) in B6D2F1 (BDF1) mice
Settings: endpoint: mean survival time, higher = longer survival
Outline: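 Survival endpoint. Drug-treated group vs vehicle group, expressed as T divided by C. Tumor passaged by transplantation.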

[1] = dose: 25.0 mg/kg/injection, schedule: Q01DX009 (ip), vehicle: Klucel (hydroxypropylcellulose) (HPC)
[2] = dose: 50.0 mg/kg/injection, schedule: Q01DX009 (ip), vehicle: Klucel (hydroxypropylcellulose) (HPC)
[3] = dose: 100.0 mg/kg/injection, schedule: Q01DX009 (ip), vehicle: Klucel (hydroxypropylcellulose) (HPC)
[4] = dose: 400.0 mg/kg/injection, schedule: Q01DX009 (ip), vehicle: Klucel (hydroxypropylcellulose) (HPC)
[5] = dose: 50.0 mg/kg/injection, schedule: Q01DX009 (ip), vehicle: saline
[6] = dose: 100.0 mg/kg/injection, schedule: Q04DX003 (ip), vehicle: saline
[7] = dose: 100.0 mg/kg/injection, schedule: Q04DX003 (ip), vehicle: Klucel (hydroxypropylcellulose) (HPC)
[8] = dose: 200.0 mg/kg/injection, schedule: Q04DX003 (ip), vehicle: Klucel (hydroxypropylcellulose) (HPC)
[9] = dose: 400.0 mg/kg/injection, schedule: Q04DX003 (ip), vehicle: Klucel (hydroxypropylcellulose) (HPC)
[10] = dose: 100.0 mg/kg/injection, schedule: Q04DX002 (ip), vehicle: Klucel (hydroxypropylcellulose) (HPC)
[11] = dose: 200.0 mg/kg/injection, schedule: Q04DX002 (ip), vehicle: Klucel (hydroxypropylcellulose) (HPC)
[12] = dose: 400.0 mg/kg/injection, schedule: Q04DX002 (ip), vehicle: Klucel (hydroxypropylcellulose) (HPC)
[13] = dose: 200.0 mg/kg/injection, schedule: Q01DX001 (ip), vehicle: saline
[14] = dose: 400.0 mg/kg/injection, schedule: Q01DX001 (ip), vehicle: saline
[15] = dose: 100.0 mg/kg/injection, schedule: Q01DX009 (ip), vehicle: saline with Tween-80
[16] = dose: 200.0 mg/kg/injection, schedule: Q04DX003 (ip), vehicle: saline
[17] = dose: 400.0 mg/kg/injection, schedule: Q04DX003 (ip), vehicle: saline

Measured: T/C

CCc1ccccc1NC(=O)NCc1ccc(C)c(C)c1
inactive: [1] 98 % of control | [2] 93 % of control | [3] 93 % of control | dose: 200.0 mg/kg/injection, schedule: Q01DX009 (ip), vehicle: Klucel (hydroxypropylcellulose) (HPC) 94 % of control | [4] 98 % of control

O=C(CCN1CCCCCCC1)c1cccc([N+](=O)[O-])c1
inactive: dose: 25.0 mg/kg/injection, schedule: Q04DX003 (ip), vehicle: saline 97 % of control | [5] 101 % of control | dose: 50.0 mg/kg/injection, schedule: Q04DX003 (ip), vehicle: saline 104 % of control | dose: 100.0 mg/kg/injection, schedule: Q01DX009 (ip), vehicle: saline 91 % of control | [6] 97 % of control and 105 % of control

Cc1c2cnccc2c(C)c2c1c1ccccc1n2CCCCCC#N
inactive: [7] 100 % of control | [8] 97 % of control | [9] 100 % of control

Cc1cc([N+](=O)[O-])c(NC2CCCCC2)c([N+](=O)[O-])c1
inactive: [10] 100 % of control | [11] 93 % of control | [12] 96 % of control

O=C(O)c1ccc(/C=N/NC(=S)Nc2cccc3cccnc23)cc1
inactive: [13] 94 % of control | [14] 97 % of control

COc1ccc(C)cc1NC(=O)SCCSC(=O)Nc1cc(C)ccc1OC
inactive: [15] 100 % of control | dose: 200.0 mg/kg/injection, schedule: Q01DX009 (ip), vehicle: saline with Tween-80 87 % of control

c1ccc(N/N=C(\C(=N\Nc2ccccc2)c2ccccc2)c2ccccc2)cc1
inactive: dose: 200.0 mg/kg/injection, schedule: Q01DX001 (ip), vehicle: Klucel (hydroxypropylcellulose) (HPC) 87 % of control | dose: 400.0 mg/kg/injection, schedule: Q01DX001 (ip), vehicle: Klucel (hydroxypropylcellulose) (HPC) 86 % of control

CC1c2cc(O)c(O)cc2CCN1C (configuration not stated)
inactive: dose: 75.0 mg/kg/injection, schedule: Q01DX001 (ip), vehicle: saline 104 % of control | dose: 150.0 mg/kg/injection, schedule: Q01DX001 (ip), vehicle: saline 110 % of control

O=C(O)C(Cc1ccccc1)NC(=O)C(F)(F)F (configuration not stated)
inactive: dose: 100.0 mg/kg/injection, schedule: Q04DX003 (ip), vehicle: other 90 % of control | dose: 200.0 mg/kg/injection, schedule: Q04DX003 (ip), vehicle: other 89 % of control

CC1(C)C=C(C(Cl)c2ccccc2)C(=O)c2ccccc21 (configuration not stated)
inactive: [7] 95 % of control | [8] 101 % of control | [9] 101 % of control

CSc1cc2c(cc1N)Cc1ccccc1-2
inactive: dose: 100.0 mg/kg/injection, schedule: Q01DX001 (ip), vehicle: carboxymethylcellulose (CMC) 98 % of control | dose: 200.0 mg/kg/injection, schedule: Q01DX001 (ip), vehicle: carboxymethylcellulose (CMC) 104 % of control | dose: 400.0 mg/kg/injection, schedule: Q01DX001 (ip), vehicle: carboxymethylcellulose (CMC) 115 % of control

Cc1nc2ccccc2c(C(=O)O)c1C
inactive: [6] 102 % of control | [16] 96 % of control | [17] 96 % of control

COc1cc(/C=c2\[nH]c(=O)/c(=C/c3cc(OC)c(OC)c(OC)c3)[nH]c2=O)cc(OC)c1OC
inactive: [3] 86 % of control | [7] 93 % of control | [8] 93 % of control | [4] 87 % of control | [9] 88 % of control

O=C1c2cc(Cl)ccc2-c2c(Cl)cc(Cl)cc21
inactive: dose: 100.0 mg/kg/injection, schedule: Q01DX001 (ip), vehicle: acetone 89 % of control | [6] 87 % of control | dose: 200.0 mg/kg/injection, schedule: Q01DX001 (ip), vehicle: acetone 89 % of control | [16] 96 % of control | dose: 400.0 mg/kg/injection, schedule: Q01DX001 (ip), vehicle: acetone 95 % of control | [17] 86 % of control

CCN1CCCC(Nc2nc(C(Cl)(Cl)Cl)nc3cc(Cl)ccc23)C1 (configuration not stated)
inactive: [15] 104 % of control | dose: 100.0 mg/kg/injection, schedule: Q04DX003 (ip), vehicle: saline with Tween-80 87 % of control | dose: 200.0 mg/kg/injection, schedule: Q04DX003 (ip), vehicle: saline with Tween-80 89 % of control | dose: 400.0 mg/kg/injection, schedule: Q04DX003 (ip), vehicle: saline with Tween-80 88 % of control

CCCNC(=O)Sc1ccc(C(C)(C)C)cc1
inactive: dose: 25.0 mg/kg/injection, schedule: Q01DX001 (ip), vehicle: Klucel (hydroxypropylcellulose) (HPC) 91 % of control | [1] 95 % of control and 104 % of control | dose: 50.0 mg/kg/injection, schedule: Q01DX001 (ip), vehicle: Klucel (hydroxypropylcellulose) (HPC) 91 % of control | [2] 98 % of control and 112 % of control | dose: 100.0 mg/kg/injection, schedule: Q01DX001 (ip), vehicle: Klucel (hydroxypropylcellulose) (HPC) 93 % of control | [3] 93 % of control and 102 % of control and 104 % of control | [10] 95 % of control and 89 % of control | [11] 96 % of control and 97 % of control | [12] 92 % of control and 93 % of control

CCOC(=O)/C(C#N)=C(\CCCCc1ccccc1)CC(C)C
inactive: dose: 100.0 mg/kg/injection, schedule: Q04DX002 (ip), vehicle: saline with Tween-80 101 % of control | dose: 200.0 mg/kg/injection, schedule: Q04DX002 (ip), vehicle: saline with Tween-80 92 % of control | dose: 400.0 mg/kg/injection, schedule: Q04DX002 (ip), vehicle: saline with Tween-80 104 % of control

COc1cc([C@@H]2c3cc4c(cc3[C@H](SC(=N)N)[C@H]3COC(=O)[C@H]23)OCO4)cc(OC)c1OC
inactive: dose: 5.0 mg/kg/injection, schedule: Q01DX Z (ip), vehicle: carboxymethylcellulose (CMC) 98 % of control | dose: 6.0 mg/kg/injection, schedule: Q01DX Z (ip), vehicle: carboxymethylcellulose (CMC) 109 % of control | dose: 10.0 mg/kg/injection, schedule: Q01DX Z (ip), vehicle: carboxymethylcellulose (CMC) 103 % of control | dose: 12.0 mg/kg/injection, schedule: Q01DX Z (ip), vehicle: carboxymethylcellulose (CMC) 112 % of control | dose: 18.0 mg/kg/injection, schedule: Q01DX Z (ip), vehicle: carboxymethylcellulose (CMC) 108 % of control | dose: 18.0 mg/kg/injection, schedule: Q01DX Z (ip), vehicle: methylcellulose (MC) 103 % of control | dose: 24.0 mg/kg/injection, schedule: Q01DX Z (ip), vehicle: carboxymethylcellulose (CMC) 112 % of control | dose: 25.0 mg/kg/injection, schedule: Q01DX009 (ip), vehicle: saline 118 % of control | dose: 27.0 mg/kg/injection, schedule: Q01DX Z (ip), vehicle: carboxymethylcellulose (CMC) 100 % of control | dose: 37.5 mg/kg/injection, schedule: Q04DX003 (ip), vehicle: saline 104 % of control | dose: 48.0 mg/kg/injection, schedule: Q01DX Z (ip), vehicle: carboxymethylcellulose (CMC) 109 % of control | [5] 88 % of control | dose: 60.0 mg/kg/injection, schedule: Q01DX Z (ip), vehicle: methylcellulose (MC) 109 % of control | dose: 75.0 mg/kg/injection, schedule: Q04DX003 (ip), vehicle: saline 105 % of control | dose: 150.0 mg/kg/injection, schedule: Q04DX003 (ip), vehicle: saline 89 % of control

CS(=O)(=O)OCCN(CCOS(C)(=O)=O)c1cccc(C(F)(F)F)c1
inactive: dose: 5.0 mg/kg/injection, schedule: Q01DX001 (ip), vehicle: saline 96 % of control | dose: 10.0 mg/kg/injection, schedule: Q01DX001 (ip), vehicle: saline 100 % of control | dose: 11.0 mg/kg/injection, schedule: Q01DX015 (ip), vehicle: saline 101 % of control | dose: 17.0 mg/kg/injection, schedule: Q01DX015 (ip), vehicle: saline 110 % of control | dose: 20.0 mg/kg/injection, schedule: Q01DX001 (ip), vehicle: saline 102 % of control | dose: 25.0 mg/kg/injection, schedule: Q01DX015 (ip), vehicle: saline 116 % of control | dose: 50.0 mg/kg/injection, schedule: Q01DX001 (ip), vehicle: saline 124 % of control | dose: 100.0 mg/kg/injection, schedule: Q01DX001 (ip), vehicle: saline 124 % of control | [13] 120 % of control | [14] 86 % of control
